One data set relates to breast cancer cell lines. The settings on record: various breast cancer cell lines; cited from earlier work.
In a further data set the test system is human PBMC cells. Kind of data set: TNF-α release by human PBMC cells after 16 h co-incubation, supernatants analysed by ELISA. It is filed as cell-based. The settings on record: FIG. 6, 10 μg/ml RNA oligonucleotides. As to the method:
In order to determine the immunogenic activity of adjuvants according to the invention, such adjuvants in the form of a lipid-modified nucleic acid containing a sequence according to SEQ ID NO: 40, 41 or 42 were co-incubated with human cells. To this end, human PBMC cells, for example, containing RNA were co-incubated for 16 hours in X-vivo15 medium (BioWhittaker), enriched with 2 mM L-glutamine (BioWhittaker), 10 U/ml penicillin (BioWhittaker) and 10 μg/ml streptomycin, with 10 μg/ml of RNA (mRNA coding for β-galactosidase or phosphorothioate RNA oligonucleotide 40 5′ […] (SEQ ID NO: 40)) and optionally with 10 μg/ml protamine. The supernatants were removed and analysed by means of ELISA. […] When determining the TNFα release, a marked stimulation of the immune system can be detected, which is at least equal to that of β-galactosidase or RNA (see FIG. 5B).
In a further experiment, the release of TNF-α by human PBMC cells was determined after stimulation with RNA oligonucleotides used according to the invention and also adjuvants according to the invention.
To that end, human PBMC cells were co-incubated for 16 hours with 10 μg/ml of RNA oligonucleotides in X-vivo15 medium (BioWhittaker), enriched with 2 mM L-glutamine (BioWhittaker), 10 U/ml penicillin (BioWhittaker) and 10 μg/ml streptomycin. […] The supernatants were removed and analysed by means of ELISA. […]
(ELISA stands for enzyme-linked immunosorbent assay.)

`Cc1c(C)c2c(c(C)c1OC(=O)CCC(=O)O)CC[C@@](C)(CCC[C@H](C)CCC[C@H](C)CCCC(C)C)O2` [VES, vitamin E succinate]: the apoptosis result in the data set with breast cancer cell lines was “induce apoptosis”.

In the case of “RNA oligo Toc CV2: tocopherol-modified sequence according to SEQ ID NO: 42 (5′-AAUGGAUAUGGAAUAUGGAA-3′, RNA CV2) (RNA, backbone not given here; tocopherol lipid conjugated)”, the “increase in immune stimulation (TNF-α release) as compared with the unmodified RNA oligonucleotide” value with human PBMC cells is recorded as “more than 10 fold”.

The values above are taken from patent US20070280929A1, “ADJUVANT IN THE FORM OF A LIPID-MODIFIED NUCLEIC ACID” (priority 2006, published 2007).
